This is an account of results in US8778964B2, “Hydroxy-substituted imidazo[1,2-a]-pyridinecarboxamides and their use” (Bayer Pharma Aktiengesellschaft, priority 2012, dated 2014).

Where a name gives a salt, the structure may show the parent alone.

One experiment relates to recombinant guanylate cyclase reporter cell line. Kind of experiment: Action on recombinant guanylate cyclase reporter cell line (MEC). Format: cell-based. The following applies: in some cases mean values obtained from individual determinations. As to the method:
B-2. Action on Recombinant Guanylate Cyclase Reporter Cell Line
The cellular action of the compounds according to the invention is determined on a recombinant guanylate cyclase reporter cell line, as described in F. Wunder et al., Anal. Biochem. 339, 104-112 (2005).
Representative values (MEC=minimal effective concentration) for the compounds according to the invention are shown in the following table (in some cases as mean values obtained from individual determinations): […]
For orientation: minimal effective concentration means the smallest amount tested that counted as effective. Take `CCCCC(NC(=O)c1c(C)nc2c(OC(C)c3c(F)cccc3F)cc(C)cn12)C(C)(C)O` (single isomer, unassigned; ent-8) [Example 171, ent-8-[1-(2,6-Difluorophenyl)ethoxy]-N-(2-hydroxy-2-methylheptan-3-yl)-2,6-dimethylimidazo-[1,2-a]pyridine-3-carboxamide]: the minimal effective concentration came to 1 µM.

On to `Cc1nc2c(OCC3CCCCC3)cccn2c1C(=O)N[C@@H]1CCC[C@@H]1O` (relative stereo) [Example 81, 8-(cyclohexylmethoxy)-N-[cis-2-hydroxycyclopentyl]-2-methylimidazo[1,2-a]-pyridine-3-carboxamide], for which the minimal effective concentration worked out at 0.65 µM. Same read-out and setting: next, `CCCC[C@@H](NC(=O)c1c(C)nc2c(OCc3c(F)cccc3F)cccn12)C(O)C(F)(F)F` (stereo partly drawn) [Example 142, 8-[(2,6-Difluorobenzyl)oxy]-2-methyl-N-[(3R)-1,1,1-trifluoro-2-hydroxyheptan-3-yl]imidazo[1,2-a]pyridine-3-carboxamide]: 0.1 µM; `CCCC[C@H](CO)NC(=O)c1c(C)nc2c(OCc3c(F)cccc3F)cc(CC)cn12` [Example 60, 8-[(2,6-difluorobenzyl)oxy]-6-ethyl-N-[(2R)-1-hydroxyhexan-2-yl]-2-methylimidazo[1,2-a]pyridine-3-carboxamide]: 0.1 µM; `Cc1nc2c(OCC3CCCCC3)cccn2c1C(=O)N[C@H]1CCC[C@@H]1O` (racemic) [Example 71, (rac)-8-(cyclohexylmethoxy)-N-[trans-2-hydroxycyclopentyl]-2-methylimidazo[1,2-a]-pyridine-3-carboxamide]: 0.1 µM. Consider `CCCC[C@H](CO)NC(=O)c1c(C)nc2c(OCc3cccc(C)c3F)cccn12` [Example 11, 8-[(2-fluoro-3-methylbenzyl)oxy]-N-[(2R)-1-hydroxyhexan-2-yl]-2-methylimidazo[1,2-a]pyridine-3-carboxamide], for which the minimal effective concentration worked out at 1.5 µM. The same measure, in the same setting: next, `CCCC[C@H](CO)NC(=O)c1c(C)nc2c(OCc3c(F)cccc3F)cccn12` [Example 1, 8-[(2,6-Difluorobenzyl)oxy]-N-[(2R)-1-hydroxyhexan-2-yl]-2-methylimidazo[1,2-a]pyridine-3-carboxamide]: 0.05 µM; `Cc1nc2c(OCc3ccccc3Cl)cccn2c1C(=O)NC(CO)CO` [Example 50, 8-[(2-chlorobenzyl)oxy]-N-(1,3-dihydroxypropan-2-yl)-2-methylimidazo[1,2-a]pyridine-3-carboxamide]: 6.5 µM.

On to `CCCC[C@H](CO)NC(=O)c1c(C)nc2c(OCc3c(F)cc(F)cc3F)cccn12` [Example 15, N-[(2R)-1-Hydroxyhexan-2-yl]-2-methyl-8-[(2,4,6-trifluorobenzyl)oxy]imidazo[1,2-a]pyridine-3-carboxamide], for which the minimal effective concentration stood at 0.1 µM. Same read-out and setting: next, `Cc1nc2c(OCc3c(F)cccc3F)cccn2c1C(=O)N[C@@H](CO)C(C)(C)C` [Example 35, 8-[(2,6-difluorobenzyl)oxy]-N-[(2R)-1-hydroxy-3,3-dimethylbutan-2-yl]-2-methylimidazo[1,2-a]-pyridine-3-carboxamide]: 0.3 µM. Still for that read-out and setting: the same measure for `CCC(O)CNC(=O)c1c(C)nc2c(OCCC(C(F)(F)F)C(F)(F)F)cc(C)cn12` (racemic) [Example 174, rac-N-(2-hydroxybutyl)-2,6-dimethyl-8-[4,4,4-trifluoro-3-(trifluoromethyl)butoxy]imidazo[1,2-a]pyridine-3-carboxamide]: 3 µM; for `Cc1nc2c(OCc3c(F)cccc3F)cccn2c1C(=O)NC(CO)CO` [Example 26, 8-[(2,6-difluorobenzyl)oxy]-N-(1,3-dihydroxy-propan-2-yl)-2-methylimidazo[1,2-a]pyridine-3-carboxamide]: 2 µM. The same measure, in the same setting: the same measure for `Cc1nc2c(OCc3c(F)cccc3F)cccn2c1C(=O)NC(C)(C)CO` [Example 34, 8-[(2,6-difluorobenzyl)oxy]-N-(1-hydroxy-2-methylpropan-2-yl)-2-methylimidazo[1,2-a]-pyridine-3-carboxamide]: 0.3 µM. On to `Cc1nc2c(OCc3c(F)cccc3F)cccn2c1C(=O)NC(CO)c1cccnc1` (racemic) [Example 124, rac-8-[(2,6-Difluorobenzyl)oxy]-N-[2-hydroxy-1-(pyridin-3-yl)ethyl]-2-methylimidazo[1,2-a]-pyridine-3-carboxamide], for which the minimal effective concentration was determined as 0.3 µM.

As to `CCCC[C@@H](NC(=O)c1c(C)nc2c(OCc3c(F)cccc3F)cccn12)C(C)(C)O` [Example 147, 8-[(2,6-Difluorobenzyl)oxy]-N-[(3R)-2-hydroxy-2-methylheptan-3-yl]-2-methylimidazo[1,2-a]-pyridine-3-carboxamide], the minimal effective concentration is 0.1 µM.

On to `Cc1nc2c(OCc3c(F)cccc3F)cccn2c1C(=O)N[C@H]1CCC[C@@H]1O` [Example 19, 8-[(2,6-difluorobenzyl)oxy]-N-[(1S,2S)-2-hydroxycyclopentyl]-2-methylimidazo[1,2-a]-pyridine-3-carboxamide], for which the minimal effective concentration was determined as 1 µM.

Turning to `Cc1cc(OCCC(C(F)(F)F)C(F)(F)F)c2nc(C)c(C(=O)NC3CCCC3O)n2c1` (stereo not shown) [Example 173, N-(2-hydroxycyclopentyl)-2,6-dimethyl-8-[4,4,4-trifluoro-3-(trifluoromethyl)butoxy]imidazo[1,2-a]pyridine-3-carboxamide], the minimal effective concentration was 3 µM. As to `Cc1nc2c(OCC3CCC3)cccn2c1C(=O)NCCOCCO` [Example 98, 8-(cyclobutylmethoxy)-N-[2-(2-hydroxyethoxy)ethyl]-2-methylimidazo[1,2-a]pyridine-3-carboxamide], the minimal effective concentration came out at 3 µM. With `CC[C@H](CO)NC(=O)c1c(C)nc2c(OCc3c(F)cccc3F)cccn12` [Example 43, 8-[(2,6-Difluorobenzyl)oxy]-N-[(2R)-1-hydroxybutan-2-yl]-2-methylimidazo[1,2-a]pyridine-3-carboxamide], the minimal effective concentration amounted to 0.16 µM. The same measure, in the same setting: next, `Cc1nc2c(OCC3CCCCC3)cccn2c1C(=O)N[C@H](CO)C(C)C` [Example 93, 8-(cyclohexylmethoxy)-N-[(2S)-1-hydroxy-3-methylbutan-2-yl]-2-methylimidazo[1,2-a]pyridine-3-carboxamide]: 1 µM; `Cc1nc2c(OCC3CCCCC3)cccn2c1C(=O)N[C@@H](C)CO` [Example 75, 8-(cyclohexylmethoxy)-N-[(2S)-1-hydroxypropan-2-yl]-2-methylimidazo[1,2-a]pyridine-3-carboxamide]: 0.22 µM. In the case of `Cc1nc2c(OCc3c(F)cccc3F)cccn2c1C(=O)N[C@@H](CO)c1ccccc1` (racemic) [Example 104, rac-8-[(2,6-difluorobenzyl)oxy]-N-[(1R)-2-hydroxy-1-phenylethyl]-2-methylimidazo[1,2-a]pyridine-3-carboxamide trifluoroacetate], the minimal effective concentration came to 0.1 µM.

For the compound `CCCC[C@H](CO)NC(=O)c1c(C)nc2c(OCc3c(F)c(F)cc(F)c3F)cccn12` [Example 7, N-[(2R)-1-hydroxyhexan-2-yl]-2-methyl-8-[(2,3,5,6-tetrafluorobenzyl)oxy]imidazo[1,2-a]pyridine-3-carboxamide], the minimal effective concentration was found to be 0.3 µM. Still for that read-out and setting: next, `COC(=O)[C@H](CO)NC(=O)c1c(C)nc2c(OCc3c(F)cccc3F)cccn12` [Example 164, Methyl N-({8-[(2,6-difluorobenzyl)oxy]-2-methylimidazo[1,2-a]pyridin-3-yl}carbonyl)-L-serinate]: 0.2 µM; `CCCC[C@H](CO)NC(=O)c1c(C)nc2c(OCc3c(F)cccc3F)cc(C3CC3)cn12` [Example 61, 6-cyclopropyl-8-[(2,6-difluorobenzyl)oxy]-N-[(2R)-1-hydroxyhexan-2-yl]-2-methylimidazo[1,2-a]pyridine-3-carboxamide]: 1 µM; `Cc1nc2c(OCc3c(F)cccc3F)cccn2c1C(=O)NC(CO)COCC(C)C` (racemic) [Example 163, rac-8-[(2,6-Difluorobenzyl)oxy]-N-(1-hydroxy-3-isobutoxypropan-2-yl)-2-methylimidazo[1,2-a]-pyridine-3-carboxamide]: 1 µM. On the same count and under the same terms, the same measure for `Cc1nc2c(OCc3c(F)cccc3F)cccn2c1C(=O)N[C@H]1CC[C@H](O)CC1` [Example 42, (rac)-8-[(2,6-difluorobenzyl)oxy]-N-(trans-4-hydroxycyclohexyl)-2-methylimidazo[1,2-a]-pyridine-3-carboxamide]: 1 µM; for `Cc1cc(OCCC(C(F)(F)F)C(F)(F)F)c2nc(C)c(C(=O)NCC(O)c3ccc(Cl)cc3)n2c1` (racemic) [Example 175, rac-N-[2-(4-chlorophenyl)-2-hydroxyethyl]-2,6-dimethyl-8-[4,4,4-trifluoro-3-(trifluoromethyl)butoxy]imidazo[1,2-a]pyridine-3-carboxamide]: 3 µM. On the same count and under the same terms, the same measure for `CCCC[C@H](CO)NC(=O)c1c(C)nc2c(OCc3cccc(F)c3F)cccn12` [Example 10, 8-[(2,3-difluorobenzyl)oxy]-N-[(2R)-1-hydroxyhexan-2-yl]-2-methylimidazo[1,2-a]pyridine-3-carboxamide]: 0.3 µM; for `CCC[C@H](CO)NC(=O)c1c(C)nc2c(OCc3c(F)cccc3F)cccn12` [Example 18, 8-[(2,6-difluorobenzyl)oxy]-N-[(2R)-1-hydroxy-pentan-2-yl]-2-methylimidazo[1,2-a]pyridine-3-carboxamide]: 0.1 µM.

The same experiment, now with this note: in some cases mean values obtained from individual determinations, trifluoroacetate.
For the compound `Cc1nc2c(OCc3c(F)cccc3F)cccn2c1C(=O)NC(CO)CCCC(F)(F)F` (racemic) [Example 102, rac-8-[(2,6-difluorobenzyl)oxy]-2-methyl-N-(6,6,6-trifluoro-1-hydroxyhexan-2-yl)-imidazo[1,2-a]pyridine-3-carboxamide trifluoroacetate], the minimal effective concentration was found to be 0.1 µM.
